According to patent US8232407B2, “Nitrogenous heterocyclic compounds with insecticidal activity, and the preparation and use thereof” (East China University of Science and Technology, priority 2008, dated 2012):

Key:
Assay type in all cases: in vivo
Nilaparvata lugens = experiment: Insecticidal activities to plant hopper, spraying method; settings: for Nilaparvata lugens Mortality (%) 500 ppm: in vivo
Outline: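 Spray test: acetone solutions of 500 down to 0.79 ppm, 2 ml per tumbler holding 10 planthoppers introduced 6 h earlier, triplicate, aqueous acetone as control. Mortality at 24 h calculated from survivors relative to control.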

Plutella xylostella = experiment: Insecticidal activities to diamondback moth, feeding dipped leaves; settings: for Plutella xylostella Mortality (%) 500 ppm: in vivo
Outline: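 Mortality was scored 24 h after larvae of Plutella xylostella (10 per treatment, 3 repeats) fed on cabbage leaves immersed 3 s in test solution and dried at room temperature. It was computed relative to survivors in a water-treated control.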

[1] = test system: Pseudaletia separate Walker; experiment: Insecticidal activities to armyworm, leaf dipping and feeding; settings: for Pseudaletia separate Walker Mortality (%) 500 ppm: in vivo
Outline: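 Armyworms (10 per tumbler, 3 replicates) ate fresh maize leaves that had been immersed for 3 seconds in compound solutions of 1.57-500 ppm in acetone, or in aqueous acetone for controls. Kills were scored at 24 h, and mortality was calculated relative to survivors in the control group.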

Aphis craccivoral = experiment: Insecticidal activities to aphids, immersion method; settings: for Aphis craccivoral Mortality (%) 500 ppm: in vivo
Outline: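 Immersion assay: compound diluted from 10 g/L DMF stock to 500 ppm in 0.2 mL/L Triton X-100, sprout-feeding wingless adults dipped 5 s. Kept at 23° C, three repeats; 24 h mortality calculated relative to surviving Triton-treated controls.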

SMILES | Nilaparvata lugens Mortality (%) 500 ppm (Nilaparvata lugens) [%] | Plutella xylostella Mortality (%) 500 ppm (Plutella xylostella) [%] | Pseudaletia separate Walker Mortality (%) 500 ppm [1] [%] | Aphis craccivoral Mortality (%) 500 ppm (Aphis craccivoral) [%] | mortality at 500 ppm (Nilaparvata lugens; Nilaparvata lugens, 24 h, read-out: Nilaparvata lugens Mortality (%) 500 ppm) [%] | mortality at 500 ppm (Plutella xylostella; Plutella xylostella, in Brassica oleracea, 24 h, read-out: Plutella xylostella Mortality (%) 500 ppm) [%] | mortality at 500 ppm ([1]; Zea mays, foliar, 24 h, read-out: Pseudaletia separate Walker Mortality (%) 500 ppm) [%] | mortality at 500 ppm (Aphis craccivoral; Aphis, 24 h, read-out: Aphis craccivoral Mortality (%) 500 ppm) [%]
O=[N+]([O-])C(=Cc1cc(Br)c(Br)o1)C1=NCCN1CC1CCOC1 (centres unmarked) [Compound 100] | 100 | 100 | 100 | 90 |  |  |  | 
CCc1ccc(C=C(C2=NCCN2CC2CCOC2)[N+](=O)[O-])o1 (centres unmarked) [Compound 101] | 65 | 78 | 65 | 76 |  |  |  | 
CCc1ccc(C(C)=C(C2=NCCN2Cc2ccc(Cl)nc2)[N+](=O)[O-])o1 [Compound 115] | 100 | 96 | 79 | 93 |  |  |  | 
CC(c1ccc(Cl)nc1)N1CCN=C1C(=Cc1ccc(Br)o1)[N+](=O)[O-] (racemic) [Compound 126] | 100 | 100 | 100 | 100 |  |  |  | 
C[N+]1=C(C(=Cc2ccc(Br)o2)[N+](=O)[O-])N(Cc2ccc(Cl)nc2)CC1.[Cl-] [Compound 248] | 100 | 100 | 100 | 100 |  |  |  | 
C[N+]1=C(C(=Cc2ccc(Cl)o2)[N+](=O)[O-])N(Cc2cnc(Cl)s2)CC1.[Cl-] [Compound 278] | 100 | 100 | 100 | 100 |  |  |  | 
CC(=C(C1=NCCN1Cc1ccc(Cl)nc1)[N+](=O)[O-])c1cc(Cl)cs1 [Compound 120] | 86 | 68 | 59 | 52 |  |  |  | 
O=[N+]([O-])C(=Cc1oc(Cl)cc1Cl)C1=NCCN1Cc1cnc(Cl)s1 [Compound 76] | 100 | 100 | 100 | 100 |  |  |  | 
CC[N+]1=C(C(=Cc2ccc(Br)o2)[N+](=O)[O-])N(Cc2ccc(Cl)nc2)CC1.[Cl-] [Compound 289] | 100 | 100 | 100 | 100 |  |  |  | 
O=[N+]([O-])C(=Cc1cc(Cl)cs1)C1=NCCN1Cc1ccc(Cl)nc1 [Compound 21] | 100 | 100 | 100 | 100 |  |  |  | 
C[N+]1=C(C(=Cc2sc(Cl)cc2Cl)[N+](=O)[O-])N(Cc2ccc(Cl)nc2)CC1.[Cl-] [Compound 267] | 100 | 100 | 100 | 100 |  |  |  | 
CCc1ccc(C=C(C2=[N+](C)CCN2Cc2ccc(Cl)nc2)[N+](=O)[O-])s1.[Cl-] [Compound 272] | 100 | 100 | 100 | 100 |  |  |  | 
O=[N+]([O-])C(=Cc1ccncc1)C1=NCCN1Cc1ccc(Cl)nc1 [Compound 39] | 35 | 21 | 35 | 24 |  |  |  | 
N#CC(=Cc1cccs1)C1=NCCN1Cc1ccc(Cl)nc1 [Compound 146] | 100 | 100 | 100 | 100 |  |  |  | 
O=[N+]([O-])C(=Cc1ccc(Br)o1)C1=NCCN1CC1CCOC1 (centres unmarked) [Compound 95] | 61 | 92 | 87 | 65 |  |  |  | 
CCC(c1ccc(Cl)nc1)N1CCN=C1C(=Cc1ccc[nH]1)[N+](=O)[O-] (racemic) [Compound 132] | 84 | 99 | 89 | 73 |  |  |  | 
CCN(Cc1ccc(Cl)nc1)C(=N\C)/C(=C\c1ccco1)[N+](=O)[O-] [Compound 151, N-((6-chloropyridin-3-yl)methyl)-N-ethyl-3-(furan-2-yl)-N′-methyl-2-nitro acrylamidine] |  |  |  |  | 87 | 79 | 86 | 76
C[N+]1=C(C(=Cc2ccc(Cl)o2)[N+](=O)[O-])N(Cc2ccc(Cl)nc2)CC1.[Cl-] [Compound 247] | 100 | 100 | 100 | 100 |  |  |  | 
O=[N+]([O-])C(=Cc1cc(Cl)co1)C1=NCCN1CC1CCOC1 (centres unmarked) [Compound 96] | 50 | 52 | 58 | 32 |  |  |  | 
N#CC(=Cc1oc(Cl)cc1Cl)C1=NCCN1Cc1ccc(Cl)nc1 [Compound 143] | 100 | 85 | 86 | 75 |  |  |  | 
O=[N+]([O-])C(=Cc1oc(Br)cc1Br)C1=NCCN1Cc1cnc(Cl)s1 [Compound 78] | 100 | 100 | 100 | 100 |  |  |  | 
O=[N+]([O-])C(=Cc1ccc(Cl)s1)C1=NCCN1Cc1cnc(Cl)s1 [Compound 86] | 100 | 100 | 100 | 100 |  |  |  | 
CC(=C(C1=NCCN1Cc1ccc(Cl)nc1)[N+](=O)[O-])c1ccco1 [Compound 111] | 53 | 25 | 77 | 45 |  |  |  | 
O=[N+]([O-])C(=Cc1cc(Br)co1)C1=NCCN1Cc1ccccc1 [Compound 107] | 92 | 85 | 96 | 82 |  |  |  | 
O=[N+]([O-])C(=Cc1cc2ccccc2[nH]1)C1=NCCN1Cc1ccc(Cl)nc1 [Compound 43] | 90 | 100 | 95 | 76 |  |  |  | 
O=[N+]([O-])C(=Cc1cc(Br)c(Br)o1)C1=NCCN1Cc1ccccc1 [Compound 110] | 23 | 51 | 85 | 58 |  |  |  | 
